Earlier results on 2 compounds are cited in patent publication US20100120733A1, “STEROID MODULATORS OF GLUCOCORTICOID RECEPTOR” (AUSPEX PHARMACEUTICALS, INC., priority 2008, published 2010).

The conditions of the series: pooled data.

`CC(C)C(=O)OCC(=O)[C@@]12O[C@H](C3CCCCC3)O[C@@H]1C[C@H]1[C@@H]3CCC4=CC(=O)C=C[C@]4(C)[C@H]3[C@@H](O)C[C@@]12C` [ciclesonide, 16,17-[[(R)-cyclohexylmethylene]bis(oxy)]-11-hydroxy-21-(2-methyl-1-oxopropoxy)-(11-beta,16-alpha)-pregna-1,4-diene-3,20-dione]: the elimination half-life was 0.71 h.
With `C[C@]12C=CC(=O)C=C1CC[C@@H]1[C@@H]2[C@@H](O)C[C@@]2(C)[C@H]1C[C@H]1O[C@@H](C3CCCCC3)O[C@]12C(=O)CO` [des-CIC, desisobutyryl-ciclesonide], the elimination half-life is 3.5 h.
